Experimental data: patent US20020183384A1, “Methods of treating nuclear factor-kappa B mediated diseases and disorders” (priority 2001, published 2002)

test system: NF-κB mediated transcription; experiment: NF-κB driven β-lactamase reporter assay in ECV-304 NF-κB.βlaZ cells (AURORA CCF2 fluorescence); format: cell-based, human; conditions: 10 μM compound; ECV-304 NF-κB.βlaZ cells stimulated with 10 ng/mL TNF-α or 100 pg/mL IL-1β, 6 hours at 37° C.; inhibition of maximum blue/green ratio
Description: Introduction: Described below is an in vitro, cell-based, high throughput screening assay that reliably identifies inhibitors of NF-κB mediated transcription.
The assay takes advantage of AURORA (Aurora Bioscience Corporation, La Jolla, Calif.) fluorescence technology. Endothelial cell vein-304 (ECV-304) cells, an endothelial-like immortalized cell type, may be stably transfected with a plasmid vector containing the cDNA for the enzyme β-lactamase (under the control of a basal promoter, Stratagene pNFκB-luc vector) and 5 copies of an human immunodeficiency virus-1 (HIV-1) NF-κB binding site. ECV-304 cells are described by Takahashi K. et al. in Spontaneous Transformation and Immobilization of Human Endothelial Cells, In Vitro Cell. Dev. Biol. 1990;25:265-274. Activation of NF-κB in ECV-304 by cytokines such as TNF-α or interleuken-1 beta (IL-1β) results in the production of β-lactamase, which cleaves a green fluorescent substrate (excitation/emission wavelengths 395 nm1530 nm) to yield a blue fluorescent product (excitation/emission wavelengths 395 nm/460 nm). Visually, the uncleaved green fluorescent substrate is sequestered intracellularly and emits green fluorescence, while the cleaved product emits blue fluorescence. Fluorescence is quantitated spectrophotometrically, and the spectral intensity of blue fluorescence versus green fluorescence can be used to calculate the degree of activation of NF-κB.
The assay was performed as outlined here and described in detail below. ECV-304 cells permanently transfected with the NF-κB driven β-lactamase gene (ECV-304 NF-κB.βlaZ) were plated in clear-bottom, black 96-well plates (1.25×10^4 cells/well) in media-199 (M-199) media containing 2% fetal bovine serum (FBS). […] The AURORA fluorescent disclosing reagent was then added. After one additional hour, the plates were read in a fluorometer at the blue 395 nm/460 nm (excitation/emission) and green 395 nm/530 nm wavelengths. Then the blue/green emission ratio was calculated. […] An IC50 for said sulfonylaminocarbonyl derivative was determined from a dose-response curve. This assay was designed to be optionally run in either high or low throughput screening modes.
Five copies of the HIV-1 NF-κB binding site (5′-[…]-3′) along with a TATA box were inserted into the EcorRI/BamHI sites of plasmid pMCRBlaZ to create plasmid p5×KBBlaZ, which procedure is illustrated in Scheme 1 below. [formula]
Cells were selected for antibiotic resistance with Zeocin for approximately 2 weeks. After the stable population had been expanded to a significant number of cells, it was stimulated with IL-1β and stained with AURORA CCF2 dye, a membrane permeant, intracellularly-trapped, fluorescent substrate. Cells that fluoresced blue (indicating a positive response of the NF-κB/β-lactamase reporter to stimulation by IL-1β) in the stimulated/stained population were then sorted by flow cytometry into a pool. The pool was expanded and stained with CCF2, and then the cells that fluoresced green from this unstimulated population (indicating a low background of the NF-κB/β-lactamase reporter construct) were cloned by flow cytometry after adding 1 cell per well in 96-well plates. Clones were allowed to expand. Each cloned cell line was then examined for fold stimulation after stimulation with IL-1β using a CCF2 reporter assay, and these stimulated cells were compared to unstimulated cells.
Cells: ECV-304 NF-κB β-Lactamase clone 1E8
Inhibitors: Prepared stock solutions of aminosulfonyl derivatives at 10 mM concentration in DMSO;
c) Added 10 μL of B into appropriate well in assay plate (the final concentration of drug is 10 μM), and […]

Structure (SMILES) | Percent Inhibition at 10 μM [%]
CC(C)c1cc(C(C)C)c(OS(=O)(=O)NC(=O)Oc2c(C(C)(C)C)cc(C(C)(C)C)cc2C(C)(C)C)c(C(C)C)c1 [Example 127, Carbamic acid, [[2,4,6-bis(1-methylethyl)phenoxy]sulfonyl]-, 2,4,6-tris(1,1-dimethylethyl)phenyl ester] | 74.01

same assay, conditions: Homo sapiens, ECV-304, 6 h, 10 μM compound; ECV-304 NF-κB.βlaZ cells stimulated with 10 ng/mL TNF-α or 100 pg/mL IL-1β, 6 hours at 37° C.; inhibition of maximum blue/green ratio; read-out: Percent Inhibition at 10 μM

Structure (SMILES) | inhibition at 10 µM [%]
CC(C)c1cc(C(C)C)c(CC(=O)NS(=O)(=O)Oc2c(C(C)C)cc(NC(=O)NC(C)(C)C)cc2C(C)C)c(C(C)C)c1 [Example 219, [(2,4,6-Triisopropyl-phenyl)-acetyl]-sulfamic acid 4-(3-tert-butyl-ureido)-2,6-diisopropyl-phenyl ester] | 15.2
CC(C)c1cccc(C(C)C)c1OS(=O)(=O)NC(=O)OC1[C@H](C(C)C)CCC[C@H]1C(C)C [Example 142, Carbamic acid, [[2,6-bis(1-methylethyl)phenoxy]sulfonyl]-, (2S,6S)-2,6-bis(1-methylethyl)cyclohexyl ester] | 53.9
CC(C)c1cccc(C(C)C)c1NC(=O)NS(=O)(=O)N(C(C)C)C(C)(C)C [Example 82, Urea, N-[2,6-bis(1-methylethyl)phenyl]-N′-[[(1,1-dimethylethyl)(1-methylethyl)-amino]sulfonyl]-] | < 10
CC(C)c1cc(C(C)C)c(CC(=O)NS(=O)(=O)Oc2c(C(C)C)cc(C(N)=O)cc2C(C)C)c(C(C)C)c1 [Example 234, [(2,4,6-Triisopropyl-phenyl)-acetyl]-sulfamic acid 4-carbamoyl-2,6-diisopropyl-phenyl ester] | 76.7
CC(C)c1cccc(C(C)C)c1NC(=O)NS(=O)(=O)N(CCCN(C)C)CCCN(C)C [Example 37, N-[[bis[3-(dimethylamino)propyl]amino]sulfonyl]-N′-[2,6-bis(1-methylethyl)phenyl]-urea] | < 10
CC(C)c1cccc(C(C)C)c1OS(=O)(=O)NC(=O)C1CCc2ccccc2C1 (centres unmarked) [Example 165, (1,2,3,4-Tetrahydro-naphthalene-2-carbonyl)-sulfamic acid 2,6-diisopropyl-phenyl ester] | 28.7
CC(C)c1cccc(C(C)C)c1NC(=O)NS(=O)(=O)N(C1CCCCC1)C1CCCCC1 [Example 78, Urea, N-[2,6-bis(1-methylethyl)phenyl]-N′-[(dicyclohexylamino)-sulfonyl]-] | 40.9
CC(C)c1cc(C(C)C)c(CC(=O)NS(=O)(=O)Oc2c(C(C)C)cc(Br)cc2C(C)C)c(C(C)C)c1 [Example 203, [(2,4,6-Triisopropyl-phenyl)-acetyl]-sulfamic acid 4-bromo-2,6-diisopropyl-phenyl ester] | 52.2
CCCCCCCCCCCCCC(C)(C)S(=O)(=O)NC(=O)Nc1c(OC)cc(OC)cc1OC [Example 249, N-[2,4,6-trimethoxyphenyl]-N′-(2-methyl-2-pentadecylsulfonyl)urea] | < 10
COc1cccc(OC)c1OS(=O)(=O)NC(=O)Cc1c(C(C)C)cc(C(C)C)cc1C(C)C [Example 186, [(2,4,6-Triisopropyl-phenyl)-acetyl]-sulfamic acid 2,6-dimethoxy-phenyl ester] | 18.8
CC(C)c1cccc(C(C)C)c1OS(=O)(=O)NC(=O)N1CCc2ccccc21 [Example 222, (2,3-Dihydro-indole-1-carbonyl)-sulfamic acid 2,6-diisopropyl-phenyl ester] | < 10
CCOC(=O)CCNC(=O)Nc1cc(C(C)C)c(OS(=O)(=O)NC(=O)Cc2c(C(C)C)cc(C(C)C)cc2C(C)C)c(C(C)C)c1 [Example 194, 3-[3-(3,5-Diisopropyl-4-{[(2,4,6-triisopropyl-phenyl)-acetyl]-sulfamoyloxy}-phenyl)-ureido]-propionic acid ethyl ester] | 89.8

same assay, conditions: Homo sapiens; 10 μM compound; ECV-304 NF-κB.βlaZ cells stimulated with 10 ng/mL TNF-α or 100 pg/mL IL-1β, 6 hours at 37° C.; inhibition of maximum blue/green ratio; read-out: Percent Inhibition at 10 μM

Structure (SMILES) | inhibition at 10 µM [%]
CCCCCCOS(=O)(=O)NC(=O)Oc1c(C(C)(C)C)cc(C)cc1C(C)(C)C [Example 49, Carbamic acid, [(hexyloxy)sulfonyl]-, 2,6-bis(1,1-dimethylethyl)-4-methylphenyl ester] | 22.9
CC(C)(C)c1cccc(C(C)(C)C)c1OC(=O)NS(=O)(=O)Nc1ccccc1Cc1ccccc1 [Example 221, Carbamic acid, [[[2-(phenylmethyl)phenyl]amino]sulfonyl]-, 2,6-bis(1,1-dimethylethyl)phenyl ester] | 44.7
CC(C)c1cc(F)cc(C(C)C)c1OC(=O)NS(=O)(=O)Oc1c(C(C)C)cccc1C(C)C [Example 184, Carbamic acid, [[2,6-bis(1-methylethyl)phenoxy]sulfonyl]-, 4-fluoro-2,6-bis(1-methylethyl)phenyl ester] | 21.2
CCCCCCN(CCCCCC)S(=O)(=O)NC(=O)Oc1c(C(C)C)cccc1C(C)C [Example 88, Carbamic acid, [(dihexylamino)sulfonyl]-, 2,6-bis(1-methylethyl)phenyl ester] | < 10
Cc1cc(C(C)(C)C)c(OC(=O)NS(=O)(=O)Oc2c(C(C)C)cccc2C(C)C)c(C(C)(C)C)c1 [Example 119, Carbamic acid, [[2,6-bis(1-methylethyl)phenoxy]sulfonyl]-, 2,6-bis(1,1-dimethylethyl)-4-methylphenyl ester] | 56.6
CC(C)c1cc(C(C)C)c(OC(=O)NS(=O)(=O)Oc2c(C(C)C)cccc2C(C)C)c(C(C)C)c1 [Example 124, Carbamic acid, [[2,6-bis(1-methylethyl)phenoxy]sulfonyl]-, 2,4,6-tris(1-methylethyl)phenyl ester] | 11.3
CC(C)(C)c1cccc(C(C)(C)C)c1OC(=O)NS(=O)(=O)Oc1c(C(C)(C)C)cccc1C(C)(C)C [Example 100, Carbamic acid, [[2,6-bis(1,1-dimethylethyl)phenoxy]sulfonyl]-, 2,6-bis(1,1-dimethylethyl)phenyl ester] | 50
COc1cc(C(C)(C)C)c(OC(=O)NS(=O)(=O)NCC(c2ccccc2)c2ccccc2)c(C(C)(C)C)c1 [Example 47, Carbamic acid, [[(2,2-diphenylethyl)amino]sulfonyl]-, 2,6-bis(1,1-dimethylethyl)-4-methoxyphenyl ester] | 41.9
CC(C)c1cc([N+](=O)[O-])cc(C(C)C)c1OC(=O)NS(=O)(=O)Oc1c(C(C)C)cccc1C(C)C [Example 110, Carbamic acid, [[2,6-bis(1-methylethyl)phenoxy]sulfonyl]-, 2,6-bis(1-methylethyl)-4-nitrophenyl ester] | 15.5
CC(C)c1cccc(C(C)C)c1OC(=O)NS(=O)(=O)NC(c1ccccc1)C(C)C (centres unmarked) [Example 65, Carbamic acid, [[((1-methylethyl)phenylmethyl)amino]sulfonyl]-, 2,6-bis(1-methylethyl)phenyl ester] | 16.4
CC(C)c1cccc(C(C)C)c1OS(=O)(=O)NC(=O)Oc1ccc(F)cc1F [Example 151, Carbamic acid, [[2,6-bis(1-methylethyl)phenoxy]sulfonyl]-, 2,4-difluorophenyl ester] | < 10
CCCCCCCCN(CCCCCCCC)S(=O)(=O)NC(=O)Oc1c(C(C)C)cccc1C(C)C [Example 85, Carbamic acid, [(dioctylamino)sulfonyl]-, 2,6-bis(1-methylethyl)phenyl ester] | 45
CC(C)c1cccc(C(C)C)c1OC(=O)NS(=O)(=O)Oc1c(C(C)C)cccc1C(C)C [Example 28, Carbamic acid, [[2,6-bis(1-methylethyl)phenoxy]sulfonyl]-, 2,6-bis(1-methylethyl)phenyl ester] | 30.2
